The nature of data set [1]: Fecal recovery. Format: in vivo, Sprague Dawley rats. Conditions: male, Sprague-Dawley, faeces; rat, 1 mg/kg oral gavage, collection time 48 h. As for the experimental part:
Three male Sprague Dawley rats were administered 1 mg/kg test compound by oral gavage. Feces were collected from study animals from 0-48 or 0-72 hours after dosing, dried by lyophilization, and homogenized. Replicate aliquots of 40-60 mg each were subjected to extraction/protein precipitation with 7:1 acetonitrile:water and centrifuged. Supernatants were diluted 1:10 in 50:50 acetonitrile:water prior to analysis by LC-MS/MS. Compound concentrations, determined by interpolation from a standard calibration curve prepared in blank feces matrix, were converted to the percentage of dosed material recovered by taking into account the total collected fecal matter. The percent recovery for each rat was reported as the mean of the calculations from replicate samples. The overall percent recovery (Fecal Recovery [%]) was reported as the mean percent recovery from three rats. Accurate quality control sample recoveries were confirmed in each run, and extraction efficiency was periodically verified.

Data set [2] concerns the target T1, Rat NHE-3 (Rattus norvegicus, UniProt P26433).
T1 construct: expressed in transfected cells; host or cells: Opossum kidney (OK) cells (ATCC), transfected by electroporation
Kind of data set: Cell-based assay of NHE-3 activity (persistent inhibition, after washout). The following applies: OK cells with rat NHE-3 gene, 60 min incubation, recovery initiated 40 min after compound washout. An outline of the steps:
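OK cells transiently expressing rat NHE-3 were exposed to 0-30 μM compound in NaCl-HEPES pH 7.4 for 60 min, then washed free of drug before NH4Cl/BCECF-AM loading and acid-loading in Na+-free choline buffer. Na+-dependent pH recovery rates (mean of ≥2 replicates) gave pIC50.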

The nature of data set [3]: Pharmacokinetic evaluation in bile. Format: in vivo, Sprague-Dawley rats. Conditions: bile duct cannulated rats, oral gavage, nominal dose 30 mg/kg, bile collected over 24 h, mean of n=3. The procedure: Bile duct cannulated (BDC) Sprague-Dawley rats were dosed with test compounds by oral gavage and a single aliquot of bile was collected via cannula over the 24 h following dosing. Bile samples were treated with acetonitrile and precipitated proteins were removed by centrifugation. Some compounds required liquid-liquid extraction using MTBE. After centrifugation, samples were diluted as appropriate in mobile phase and analyzed by LC-MS/MS. The concentrations of compounds in bile were determined by interpolation from a standard calibration curve prepared in rat bile from untreated BDC rats. Accurate recovery of quality control samples was confirmed to accept each analytical run. Concentration in bile is reported in nM and represents the mean result from n=3 rats.

Data set [4] addresses T1, Rat NHE-3. Kind of data set: Cell-based assay of NHE-3 activity (rat NHE-3 prompt inhibition). Conditions: OK cells with rat NHE-3 gene, compound present during pH recovery. An outline of the steps: (§1)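 Opossum kidney cells electroporated with rat or human NHE-3, loaded with 5 μM BCECF-AM in NH4Cl-HEPES pH 7.4 for 30 min at RT, then acidified 10 min in Na+-free choline HEPES. Na+-dependent pH recovery rates from BCECF fluorescence, averaged over ≥2 replicates, gave pIC50.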

The target in data set [5] is T2, human NHE-3 (Homo sapiens, UniProt P48764).
T2 construct: expressed in transfected cells; host or cells: Opossum kidney (OK) cells (ATCC), transfected by electroporation
T2 sequence (P48764 26-834): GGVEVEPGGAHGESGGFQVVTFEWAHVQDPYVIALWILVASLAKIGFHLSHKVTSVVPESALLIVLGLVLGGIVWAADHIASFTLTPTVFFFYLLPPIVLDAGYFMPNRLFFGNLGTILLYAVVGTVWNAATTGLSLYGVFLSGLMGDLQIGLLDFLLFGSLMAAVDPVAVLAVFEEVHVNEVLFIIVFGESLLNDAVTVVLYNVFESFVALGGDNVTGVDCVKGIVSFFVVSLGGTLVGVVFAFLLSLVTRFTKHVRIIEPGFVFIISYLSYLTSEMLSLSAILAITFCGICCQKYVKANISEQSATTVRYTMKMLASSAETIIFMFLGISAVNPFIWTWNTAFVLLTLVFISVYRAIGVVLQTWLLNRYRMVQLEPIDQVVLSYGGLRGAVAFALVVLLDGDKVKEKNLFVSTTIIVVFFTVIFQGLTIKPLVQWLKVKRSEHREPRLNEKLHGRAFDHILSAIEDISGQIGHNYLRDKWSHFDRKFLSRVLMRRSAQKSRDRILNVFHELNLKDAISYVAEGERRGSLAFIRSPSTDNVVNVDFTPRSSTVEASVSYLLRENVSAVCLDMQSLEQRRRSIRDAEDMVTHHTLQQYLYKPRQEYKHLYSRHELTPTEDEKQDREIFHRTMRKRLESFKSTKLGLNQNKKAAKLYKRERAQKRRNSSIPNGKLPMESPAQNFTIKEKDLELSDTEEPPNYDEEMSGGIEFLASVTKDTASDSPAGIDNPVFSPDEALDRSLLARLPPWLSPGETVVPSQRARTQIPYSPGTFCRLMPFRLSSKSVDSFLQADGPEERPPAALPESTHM
Kind of data set: Cell-based assay of NHE-3 activity (human NHE3 inhibition assay). The following applies: OK cells with human NHE-3 gene, BCECF pH dye, 0-30 μM test compound. An outline of the steps: as §1

Data set [6] can be described thus: Plasma PK. The following applies: Sprague-Dawley; rat plasma, oral gavage, nominal dose 30 mg/kg, mean of n=3, sampling 0.5-4 h. Format: in vivo, Sprague-Dawley rats. As for the experimental part: Sprague-Dawley rats (n=3) were dosed with test compounds by oral gavage. Blood was collected at 0.5, 1, 2 and 4 h via retro-orbital bleeds and processed to plasma using K2EDTA as an anticoagulant. Plasma samples were treated with acetonitrile containing an internal standard and precipitated proteins were removed by centrifugation. Supernatants were analyzed by LC-MS/MS and compound concentrations were determined by interpolation from a calibration curve prepared in plasma. Accurate recovery of quality control samples were confirmed to accept each analytical run.

SMILES strings stand for the structures.

T1 sequence (P26433 29-831): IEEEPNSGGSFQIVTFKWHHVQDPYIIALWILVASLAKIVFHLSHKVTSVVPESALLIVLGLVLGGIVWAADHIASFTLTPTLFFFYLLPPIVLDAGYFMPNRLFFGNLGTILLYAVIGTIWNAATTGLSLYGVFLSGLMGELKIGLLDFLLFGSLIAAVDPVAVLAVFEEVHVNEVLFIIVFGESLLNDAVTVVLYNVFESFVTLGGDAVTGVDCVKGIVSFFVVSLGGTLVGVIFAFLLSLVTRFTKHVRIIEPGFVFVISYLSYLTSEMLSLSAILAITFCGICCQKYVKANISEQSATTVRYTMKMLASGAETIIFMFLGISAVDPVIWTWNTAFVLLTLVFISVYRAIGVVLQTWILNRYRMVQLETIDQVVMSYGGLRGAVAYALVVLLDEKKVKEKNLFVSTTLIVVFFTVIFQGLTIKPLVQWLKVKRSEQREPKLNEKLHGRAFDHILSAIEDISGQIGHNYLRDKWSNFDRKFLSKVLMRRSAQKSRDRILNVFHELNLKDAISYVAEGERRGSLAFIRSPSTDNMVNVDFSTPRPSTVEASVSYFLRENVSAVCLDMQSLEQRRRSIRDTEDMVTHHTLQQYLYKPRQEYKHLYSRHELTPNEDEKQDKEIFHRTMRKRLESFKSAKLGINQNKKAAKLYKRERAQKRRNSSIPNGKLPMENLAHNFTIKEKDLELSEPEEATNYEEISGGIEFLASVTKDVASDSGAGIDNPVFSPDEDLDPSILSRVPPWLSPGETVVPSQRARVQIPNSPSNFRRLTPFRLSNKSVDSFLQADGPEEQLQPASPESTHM

In data set [1], `CN1Cc2c(Cl)cc(Cl)cc2[C@H](c2cccc(S(=O)(=O)NCCOCCOCCNC(=O)NCCC(N)(CCNC(=O)NCCOCCOCCNS(=O)(=O)c3cccc([C@@H]4CN(C)Cc5c(Cl)cc(Cl)cc54)c3)CCNC(=O)NCCOCCOCCNS(=O)(=O)c3cccc([C@@H]4CN(C)Cc5c(Cl)cc(Cl)cc54)c3)c2)C1` [Example 46, (S)—N,N′-(14-amino-14-(13-(3-((S)-6,8-dichloro-2-methyl-1,2,3,4-tetrahydroisoquinolin-4-yl)phenylsulfonamido)-4-oxo-8,11-dioxa-3,5-diazatridecyl)-10,18-dioxo-3,6,22,25-tetraoxa-9,11,17,19-tetraazaheptacosane-1,27-diyl)bis(3-((S)-6,8-dichloro-2-methyl-1,2,3,4-tetrahydroisoquinolin-4-yl)benzenesulfonamide)] returned a dose excreted of 75.8%. Also, the IC50 in data set [2] (read-out: Rat NHE3 pIC50 (persistent) (converted)), in data set [4] (read-out: Rat NHE3 pIC50 (prompt) (converted)) and in data set [5] (read-out: Human NHE3 pIC50 (converted)) was less than 100 nM each time. In addition, the “Concentration in Bile” value in data set [3] was determined as 3 nM.

With `CN1Cc2c(Cl)cc(Cl)cc2[C@H](c2cccc(S(=O)(=O)NCCOCCOCCOCCNC(=O)NCCN(CCNC(=O)NCCOCCOCCOCCNS(=O)(=O)c3cccc([C@@H]4CN(C)Cc5c(Cl)cc(Cl)cc54)c3)CCNC(=O)NCCOCCOCCOCCNS(=O)(=O)c3cccc([C@@H]4CN(C)Cc5c(Cl)cc(Cl)cc54)c3)c2)C1` [Example 52], the “Rat NHE3 pIC50 (persistent)” value in data set [2] is “C (C NHE3 pIC50 > 7)”. For the same molecule, the “Rat NHE3 pIC50 (prompt)” value in data set [4] is “B (B NHE3 pIC50 5-7)”. The “Human NHE3 pIC50” value in data set [5] is on record as “C (C NHE3 pIC50 > 7)”. In data set [6], this molecule showed an AUC of less than 19 ng·h/mL and a Cmax of less than 5 ng/mL.

As usually defined, the AUC is the area under the concentration-time curve, a measure of exposure. Low values mean low exposure, high ones high exposure. One may read the Cmax as the highest concentration seen after dosing.

These data come from US10385024B2, “Compounds and methods for inhibiting NHE-mediated antiport in the treatment of disorders associated with fluid retention or salt overload and gastrointestinal tract disorders” (Ardelyx, Inc., priority 2012, dated 2019).
